Drawing on the supplement of paper PMC10307832, this text covers relative viability for seven cell lines.

Experiment in all cases: relative viability (nuclei count vs DMSO), 5 days (fraction); higher = more cells survive
Compound in assay [1]: C1CC2=C(C1)C=C(C=C2)OC3=NC(=C4C(=N3)N(C=N4)CC5=CC=C(C=C5)C6=CC=CC=C6)N[C@@H](CC7=CC=CC=C7)CO [QS11] + COc1cccc2cc(-c3nc([C@H]4CC[C@H](C(=O)O)CC4)n4ncnc(N)c34)[nH]c12 [OSI-027] (partner 0.5 µM)
The method in brief: (§1)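 Relative viability equals treated-well nuclei counts divided by vehicle-well nuclei counts. Counts came from 4× images of lung cancer cell lines grown in 1536-well plates for 5 days after pin-tool dosing on the day after seeding. Dosing used one drug alone or a fixed anchor-drug dose plus five library-drug doses (not always all listed) in √10 steps, and values are medians of duplicate plates.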

Compound in assay [2]: C1CC2=C(C1)C=C(C=C2)OC3=NC(=C4C(=N3)N(C=N4)CC5=CC=C(C=C5)C6=CC=CC=C6)N[C@@H](CC7=CC=CC=C7)CO [QS11] + Nc1nc2[nH]cc(CCc3ccc(C(=O)N[C@@H](CCC(=O)O)C(=O)O)cc3)c2c(=O)[nH]1 [Pemetrexed] (partner 0.2 µM)
The method in brief: as §1

Compound in assay [3]: CC1=C(C=C(C=C1)NC(=O)C2=CC(=CC=C2)C(C)(C)C#N)NC3=CC4=C(C=C3)N=CN(C4=O)C [AZ628] + CS(=O)(=O)N1CCN(Cc2cc3nc(-c4cccc5[nH]ncc45)nc(N4CCOCC4)c3s2)CC1 [Pictilisib] (partner 1 µM)
Summed up: as §1

Compound in assay [4]: C1CC2=C(C1)C=C(C=C2)OC3=NC(=C4C(=N3)N(C=N4)CC5=CC=C(C=C5)C6=CC=CC=C6)N[C@@H](CC7=CC=CC=C7)CO [QS11] + O=C(CCCCCCC(=O)Nc1ccccc1)NO [Vorinostat] (partner 1 µM)
The method in brief:
as §1

In the case of NCI-H596, the relative viability in assay [1] (first compound 0.08 µM) worked out at 0.715; in assay [1] (first compound 0.253 µM), 0.688; in assay [1] (first compound 0.8 µM) it was 0.679; in assay [1] (first compound 2.53 µM), 0.66; in assay [1] (first compound 8 µM), 0.732; in assay [2] (first compound 0.08 µM) it was 0.456. For the same cell line, the relative viability came out at 0.468 in assay [2] (first compound 0.253 µM); 0.507 in assay [2] (first compound 0.8 µM); 0.528 in assay [2] (first compound 2.53 µM); 0.476 in assay [2] (first compound 8 µM); 0.36 in assay [3] (first compound 0.08 µM); 0.383 in assay [3] (first compound 0.253 µM). The relative viability is 0.382 in assay [3] (first compound 0.8 µM); 0.376 in assay [3] (first compound 2.53 µM); 0.42 in assay [3] (first compound 8 µM); 0.52 in assay [4] (first compound 0.08 µM); 0.51 in assay [4] (first compound 0.253 µM); 0.501 in assay [4] (first compound 0.8 µM). Also, the relative viability in assay [4] (first compound 2.53 µM) was found to be 0.623; in assay [4] (first compound 8 µM) it was 0.593.
Regarding NCI-H1944, the relative viability worked out at 0.41 in assay [1] (first compound 0.08 µM); 0.387 in assay [1] (first compound 0.253 µM); 0.378 in assay [1] (first compound 2.53 µM); 0.314 in assay [1] (first compound 8 µM); 0.535 in assay [2] (first compound 0.08 µM); 0.632 in assay [2] (first compound 0.253 µM). Further, the relative viability in assay [2] (first compound 2.53 µM) is 0.491; in assay [2] (first compound 8 µM), 0.565; in assay [3] (first compound 0.08 µM) it was 0.359; in assay [3] (first compound 0.253 µM) it was 0.321; in assay [3] (first compound 0.8 µM) it was 0.322; in assay [3] (first compound 2.53 µM) it was 0.29. Besides, the relative viability in assay [3] (first compound 8 µM) came to 0.321; in assay [4] (first compound 0.08 µM) it was 0.485; in assay [4] (first compound 0.253 µM), 0.491; in assay [4] (first compound 2.53 µM), 0.424; in assay [4] (first compound 8 µM), 0.505.
Regarding HCC-827, the relative viability in assay [1] (first compound 0.08 µM) worked out at 0.845; in assay [1] (first compound 0.253 µM) it was 0.855; in assay [1] (first compound 0.8 µM), 0.754; in assay [1] (first compound 2.53 µM), 0.862; in assay [1] (first compound 8 µM) it was 1.01; in assay [2] (first compound 0.08 µM), 0.262. Also, the relative viability in assay [2] (first compound 0.253 µM) was found to be 0.274; in assay [2] (first compound 0.8 µM), 0.258; in assay [2] (first compound 2.53 µM), 0.257; in assay [2] (first compound 8 µM) it was 0.35; in assay [3] (first compound 0.08 µM), 0.98; in assay [3] (first compound 0.253 µM), 0.994. Also, the relative viability turned out to be 0.988 in assay [3] (first compound 0.8 µM); 0.984 in assay [3] (first compound 2.53 µM); 0.826 in assay [3] (first compound 8 µM); 0.749 in assay [4] (first compound 0.08 µM); 0.927 in assay [4] (first compound 0.253 µM); 0.672 in assay [4] (first compound 0.8 µM). Also, the relative viability in assay [4] (first compound 2.53 µM) was 0.944; in assay [4] (first compound 8 µM), 0.899.
On to NCI-H1915, for which the relative viability turned out to be 0.61 in assay [1] (first compound 0.08 µM); 0.617 in assay [1] (first compound 0.253 µM); 0.622 in assay [1] (first compound 2.53 µM); 0.591 in assay [1] (first compound 8 µM); 0.583 in assay [2] (first compound 0.08 µM); 0.538 in assay [2] (first compound 0.253 µM). The relative viability in assay [2] (first compound 2.53 µM) was 0.567; in assay [2] (first compound 8 µM), 0.529; in assay [3] (first compound 0.08 µM) it was 0.822; in assay [3] (first compound 0.253 µM), 0.67; in assay [3] (first compound 0.8 µM) it was 0.693; in assay [3] (first compound 2.53 µM), 0.493. The relative viability in assay [3] (first compound 8 µM) was determined as 0.313; in assay [4] (first compound 0.08 µM) it was 0.522; in assay [4] (first compound 0.253 µM) it was 0.528; in assay [4] (first compound 2.53 µM), 0.467; in assay [4] (first compound 8 µM), 0.391.
As for NCI-H2347, the relative viability in assay [1] (first compound 0.08 µM) worked out at 0.489; in assay [1] (first compound 0.253 µM), 0.474; in assay [1] (first compound 0.8 µM), 0.411; in assay [1] (first compound 2.53 µM), 0.371; in assay [1] (first compound 8 µM) it was 0.347; in assay [2] (first compound 0.08 µM), 0.455. Besides, the relative viability in assay [2] (first compound 0.253 µM) was 0.426; in assay [2] (first compound 0.8 µM), 0.396; in assay [2] (first compound 2.53 µM), 0.458; in assay [2] (first compound 8 µM), 0.446; in assay [3] (first compound 0.08 µM), 0.321; in assay [3] (first compound 0.253 µM), 0.437. Also, the relative viability in assay [3] (first compound 0.8 µM) came out at 0.312; in assay [3] (first compound 2.53 µM) it was 0.32; in assay [3] (first compound 8 µM), 0.287; in assay [4] (first compound 0.08 µM), 0.596; in assay [4] (first compound 0.253 µM), 0.579; in assay [4] (first compound 0.8 µM) it was 0.541. The results for the relative viability in assay [4] (first compound 2.53 µM) and in assay [4] (first compound 8 µM) were 0.662 and 0.56, respectively.
In the case of NCI-H647, the relative viability was 0.585 in assay [1] (first compound 0.08 µM); 0.64 in assay [1] (first compound 0.253 µM); 0.596 in assay [1] (first compound 0.8 µM); 0.642 in assay [1] (first compound 2.53 µM); 0.732 in assay [1] (first compound 8 µM); 0.2 in assay [2] (first compound 0.08 µM). Also, the relative viability was 0.146 in assay [2] (first compound 0.253 µM); 0.155 in assay [2] (first compound 0.8 µM); 0.159 in assay [2] (first compound 2.53 µM); 0.202 in assay [2] (first compound 8 µM); 0.385 in assay [3] (first compound 0.08 µM); 0.163 in assay [3] (first compound 0.253 µM). In addition, the relative viability in assay [3] (first compound 0.8 µM) stood at 0.313; in assay [3] (first compound 2.53 µM), 0.247; in assay [3] (first compound 8 µM), 0.27; in assay [4] (first compound 0.08 µM), 0.623; in assay [4] (first compound 0.253 µM), 0.801; in assay [4] (first compound 0.8 µM) it was 0.62. The relative viability in assay [4] (first compound 2.53 µM) is 0.387; in assay [4] (first compound 8 µM) it was 0.356.
Turning to CAL-12T, the relative viability turned out to be 0.656 in assay [1] (first compound 0.08 µM); 0.457 in assay [1] (first compound 0.253 µM); 0.498 in assay [1] (first compound 0.8 µM); 0.385 in assay [1] (first compound 2.53 µM); 0.407 in assay [1] (first compound 8 µM); 1.26 in assay [2] (first compound 0.08 µM). Further, the relative viability is 1.37 in assay [2] (first compound 0.253 µM); 1.05 in assay [2] (first compound 0.8 µM); 1.24 in assay [2] (first compound 2.53 µM); 1.04 in assay [2] (first compound 8 µM); 0.393 in assay [3] (first compound 0.08 µM); 0.416 in assay [3] (first compound 0.8 µM). Moreover, the relative viability in assay [3] (first compound 2.53 µM) amounted to 0.298; in assay [3] (first compound 8 µM), 0.505; in assay [4] (first compound 0.08 µM) it was 0.867; in assay [4] (first compound 0.253 µM), 0.915; in assay [4] (first compound 0.8 µM) it was 0.713; in assay [4] (first compound 2.53 µM), 0.983. Besides, the relative viability in assay [4] (first compound 8 µM) turned out to be 0.704.
